Measurements published in patent US6034069A, “3-'N-modified 6-O-substituted erythromycin ketolide derivatives having antibacterial activity” (priority 1998, dated 2000).

Tests used:
[1] = tested on: Streptococcus Pheumoniae 5979; experiment: in vitro antibacterial activity, agar dilution MIC; format: cell-based; settings: Organism code ZZ; BHI agar, 35-37° C., 20 to 24 hours
Method: (§1) Representative compounds of the present invention were assayed in vitro for antibacterial activity as follows: Twelve petri dishes containing successive aqueous dilutions of the test compound mixed with 10 mL of sterilized Brain Heart Infusion (BHI) agar (Difco 0418-01-5) were prepared. Each plate was inoculated with 1:100 (or 1:10 for slow-growing strains, such as Micrococcus and Streptococcus) dilutions of up to 32 different microorganisms, using a Steers replicator block. […] In addition, a control plate, using BHI agar containing no test compound, was prepared and incubated at the beginning and end of each test.
(§2) An additional plate containing a compound having known susceptibility patterns for the organisms being tested and belonging to the same antibiotic class as the test compound was also prepared and incubated as a further control, as well as to provide test-to-test comparability.
(§3) After incubation, each plate was visually inspected. The minimum inhibitory concentration (MIC) was defined as the lowest concentration of drug yielding no growth, a slight haze, or sparsely isolated colonies on the inoculum spot as compared to the growth control.

[2] = tested on: Escherichia coli DC-2; experiment: in vitro antibacterial activity, agar dilution MIC; format: cell-based; settings: Organism code SS; BHI agar, 35-37° C., 20 to 24 hours
Method: as §1, §2, §3

Compound	minimum inhibitory concentration (MIC) [1]	minimum inhibitory concentration (MIC) [2]
CC[C@H]1OC(=O)[C@H](C)C(=O)[C@H](C)[C@@H](O[C@@H]2O[C@H](C)C[C@H](N(C)CC#N)[C@H]2O)[C@](C)(OCC=Cc2cnc3ccccc3c2)C[C@@H](C)C(=O)[C@H](C)[C@H]2NC(=O)O[C@@]21C [Example 9]	128	–
C=C(C)CN(C)[C@H]1C[C@@H](C)O[C@@H](O[C@@H]2[C@@H](C)C(=O)[C@@H](C)C(=O)O[C@H](CC)[C@@]3(C)OC(=O)N[C@@H]3[C@@H](C)C(=O)[C@H](C)C[C@@]2(C)OCC=Cc2cnc3ccccc3c2)[C@@H]1O [Example 19]	128	–
CC[C@H]1OC(=O)[C@H](C)C(=O)[C@H](C)[C@@H](O[C@@H]2O[C@H](C)C[C@H](N(C)CC3CC3)[C@H]2O)[C@](C)(OCC=Cc2cnc3ccccc3c2)C[C@@H](C)C(=O)[C@H](C)[C@H]2NC(=O)O[C@@]21C [Example 15]	> 128	–
CC[C@H]1OC(=O)[C@H](C)C(=O)[C@H](C)[C@@H](O[C@@H]2O[C@H](C)C[C@H](N(C)CCF)[C@H]2O)[C@](C)(OCC=Cc2cnc3ccccc3c2)C[C@@H](C)C(=O)[C@H](C)[C@H]2NC(=O)O[C@@]21C [Example 7]	–	> 100
C=C(CN(C)[C@H]1C[C@@H](C)O[C@@H](O[C@@H]2[C@@H](C)C(=O)[C@@H](C)C(=O)O[C@H](CC)[C@@]3(C)OC(=O)N[C@@H]3[C@@H](C)C(=O)[C@H](C)C[C@@]2(C)OCC=Cc2cnc3ccccc3c2)[C@@H]1O)C(=O)OC [Example 18]	128	–
CC[C@H]1OC(=O)[C@H](C)C(=O)[C@H](C)[C@@H](O[C@@H]2O[C@H](C)C[C@H](N(C)Cc3cccnc3)[C@H]2O)[C@](C)(OCC=Cc2cnc3ccccc3c2)C[C@@H](C)C(=O)[C@H](C)[C@H]2NC(=O)O[C@@]21C [Example 14]	> 128	–
CCCN(C)[C@H]1C[C@@H](C)O[C@@H](O[C@@H]2[C@@H](C)C(=O)[C@@H](C)C(=O)O[C@H](CC)[C@@]3(C)OC(=O)N[C@@H]3[C@@H](C)C(=O)[C@H](C)C[C@@]2(C)OCC=Cc2cnc3ccccc3c2)[C@@H]1O [Example 16]	128	–
